Experimental data from patent publication US10548912B2, “Dosage regimen for a tiacumicin compound” (Astellas Pharma Europe Ltd., priority 2015, dated 2020).
Where two headings read alike, the source gives them in different places.

Assays:
[1] = tested on: Clostridium difficile (C. diff) toxins A and B; test: Detection of C. difficile toxins A and B in human faecal samples by ELISA (EXTEND samples); type: in vivo
Experimental: The detection of Clostridium difficile (C. diff) toxins A and B in human faecal samples was performed by ELISA. The samples to be analysed originated from clinical study 2819-MA-1002 (EXTEND).
The samples were sent to LGC (Analytical lab in Fordham, Cambridgeshire, UK) packed in dry ice and upon receipt stored in a freezer (nominally −80° C.). For each patient a stool sample was collected at Day 0 (screening) and also in case of disease recurrence or an unscheduled visit. For subjects participating in the Microbiome sub-study stool samples were collected at: Day 0 (screening), Day 5, Day 12, Day 27, Day 40, Day 55 and in the case of disease recurrence or an unscheduled visit. A total of 596 faecal samples were collected during the study.
C. difficile toxins A and B in human faecal samples were detected using TECHLAB C. difficile Tox A/B II ELISA kits (Product Number T5015).
The assay readout is the spectrophotometric dual wavelength optical density (OD) read at 450 nm and referenced at 620 nm and expressed in Absorbance Units (AU). All samples were measured in duplicate. The presence (+) or absence (−) of toxin was reported together with the mean OD.
The acceptability of each batch of test samples was dependent on the data from the QC samples fulfilling the acceptance criteria outlined below in Table 5, in that all positive QCs remain above the cut off value of >0.080 OD and negative QCs remain ≤0.080 OD. All batches contained 2 separate sets of QC samples which were measured in duplicate. The precision was calculated between the OD of replicates of each set using the coefficient of variation (CV) which should be <20%.

[2] = tested on: Clostridium difficile toxin A and B; test: Single patient cases of Examples 6 and 7, indicator-guided switch to intermittent fidaxomicin; type: in vivo, human
Experimental: (§1) A patient being tested positively for Clostridium difficile toxin A and B (using a suitable assay known in the art) and having >5 UBM per day is treated with 200 mg Fidaxomicin twice a day in an initial course of treatment. The number of UBM is monitored daily to establish if the number of UBM will change positively to ≤3 UBM per day. At day 2 of the initial course of treatment the UBM is reduced to 2 UBM per day and at day 3 to 1 UBM per day. Since the UBM is below 4 UBM per day and even below 3 UBM per day for 2 consecutive days, the dosage regimen is switched to the intermittent course of treatment by administering to the patient 200 mg Fidaxomicin every other day starting from day 5 until Clostridium difficile toxin A and B are tested negative. The presence of Clostridium difficile toxin A and B is tested negative at day 12 after start of treatment (using a suitable assay known in the art).
as §1, with “day 9 and 10” for “day 2”, “to” for “to 2 UBM per day and at day”, “3” for “3 to 1”, “4” for “4 UBM per day and even below 3”, “day 12” for “day 5”, “day 27” for “day 12”

[3] = tested on: Clostridium difficile infection; settings: Louie 2011; 200 mg Fidaxomicin twice daily or vancomycin 125 mg four times daily orally for 10 days; cited from earlier work
[4] = tested on: Clostridium difficile infection; settings: Cornely 2012; 200 mg Fidaxomicin twice daily or vancomycin 125 mg four times daily orally for 10 days; cited from earlier work
[5] = Sub-study visit day 5, n = 20 per arm
[6] = Sub-study visit day 12, n = 20 per arm
[7] = Sub-study visit day 27, n = 20 Fidaxomicin, 17 Vancomycin

## CCc1c(Cl)c(O)c(Cl)c(O)c1C(=O)O[C@H]1[C@H](O)[C@H](OC)[C@H](OC/C2=C\C=C\C[C@H](O)/C(C)=C/[C@H](CC)[C@@H](O[C@@H]3OC(C)(C)[C@@H](OC(=O)C(C)C)[C@H](O)[C@@H]3O)/C(C)=C/C(C)=C/C[C@@H]([C@@H](C)O)OC2=O)O[C@@H]1C [fidaxomicin, 3-[[[6-deoxy-4-O-(3,5-dichloro-2-ethyl-4,6-dihydroxybenzoyl)-2-O-methyl-β-D-mannopyranosyl]oxy]methyl]-12(R)-[[6-deoxy-5-C-methyl-4-O-(2-methyl-1-oxopropyl)-β-D-lyxo-hexopyranosyl]oxy]-11 (S)-ethyl-8(S)-hydroxy-18(S)-(1(R)-hydroxyethyl)-9,13,15-trimethyloxacyclooctadeca-3,5,9,13,15-pentaene-2-one]
[1]; [5]
  CDI toxin in faecal stool samples, Negative (%): (75%)
  CDI toxin in faecal stool samples, Negative (number of subjects): 15
  CDI toxin in faecal stool samples, Positive (%): (25%)
  CDI toxin in faecal stool samples, Positive (number of subjects): 5
[1]; [6]
  CDI toxin in faecal stool samples, Negative (%): (95.0%)
  CDI toxin in faecal stool samples, Negative (number of subjects): 19
  CDI toxin in faecal stool samples, Positive (%): (5.0%)
  CDI toxin in faecal stool samples, Positive (number of subjects): 1
[1]; [7]
  CDI toxin in faecal stool samples, Negative (%): (95.0%)
  CDI toxin in faecal stool samples, Negative (number of subjects): 19
  CDI toxin in faecal stool samples, Positive (%): (5.0%)
  CDI toxin in faecal stool samples, Positive (number of subjects): 1
[2]; Example 6 patient, day 2 of initial course 200 mg twice a day, >5 UBM per day before
  UBM per day: 2 UBM per day
[2]; Example 6 patient, day 3 of initial course 200 mg twice a day
  UBM per day: 1 UBM per day
[2]; Example 6 patient, day 12 after start of treatment, 200 mg every other day from day 5
  Presence of Clostridium difficile toxin A and B: negative
[2]; Example 7 patient, day 9 and 10 of initial course 200 mg twice a day, >5 UBM per day before
  UBM per day: 3 UBM per day
[2]; Example 7 patient, day 27 after start of treatment, 200 mg every other day from day 12
  Presence of Clostridium difficile toxin A and B: negative
[3]
  Recurrence 30 days after end of treatment (%): 15.4%
  Recurrence 30 days after end of treatment (patients/N): 39/253
  Sustained clinical cure 30 days after end of treatment (%): 74.6%
  Sustained clinical cure 30 days after end of treatment (patients/N): 214/287
[4]
  Recurrence 30 days after end of treatment (%): 12.7%
  Recurrence 30 days after end of treatment (patients/N): 28/221
  Sustained clinical cure 30 days after end of treatment (%): 76.6%
  Sustained clinical cure 30 days after end of treatment (patients/N): 193/252
